Patent US20210308077A1, “COMBINATIONS INCLUDING BETA-ADRENORECEPTOR AGONISTS FOR TREATMENT OF PARKINSON`S DISEASE AND MOVEMENT DISORDERS” (The Brigham and Women`s Hospital, Inc., priority 2017, published 2021)
Where a name gives a salt, the structure may show the parent alone.

Tests used:
SNCA mRNA [1] = assay: endogenous SNCA mRNA expression in SK-N-MC neuroblastoma cells (screening, replication, confirmation; qPCR); format: cell-based, human; conditions: for relative SNCA mRNA abundance, confirmation stage: 10 μM for 48 hours, vs vehicle control
Procedure: Human neuroblastoma SK-N-MC cells were acquired from American Type Culture Collection (ATCC). Cells were cultured at 37° C. in 5% CO2 in DMEM/F12 supplemented with 10% fetal bovine serum (FBS) and 100 units per ml penicillin and streptomycin. The drug library was obtained from the Laboratory for Drug Discovery in Neurodegeneration (LDDN), Harvard NeuroDiscovery Center, Boston, Mass. The drug library consisted of approximately 1,126 small molecules. About 586 of the compounds were from Prestwick Chemical's (Illkirch, France) library, a unique collection of mostly off-patent small organic molecules, 90% being marketed drugs and 10% bioactive alkaloids or related substances. About 400 compounds were from the SPECS collection (available on the world wide web at.specs.net). 140 compounds generated in house by the LDDN were also included in the library. Compounds for the screening were stored as DMSO stocks. All drugs used for Confirmation Assay were purchased from Sigma (St. Louis, Mo.).
Approximately 2×10^4low passage SK-N-MC cells were seeded per well in 384-well cell culture plates for 24 hours. Compounds were then transferred into each well (final concentration 1 μM) by using a BioMekFX (Beckman Coulter) equipped with a 384-channel pipetting head. After 48 hours in cell culture incubator, cells were washed once in cold phosphate-buffered saline (PBS) by using BioTek ELx405 select CW plate washer and then lysed at room temperature (22-24° C.) with lysis buffer (Applied Biosystems) using the Cell-to-CT procedures according to the manufacturer's instructions (Applied Biosystems). After 5 min, lysis was terminated by incubation with stop solution (Applied Biosystems). 11 μL of each lysate were transferred to 384-well plates for RT in a total volume of 25 μl. 4 μL of RT reaction were then transferred to new 384-well plates for qPCR.
Using the Cell-to-CT kit (Applied Biosystems) we performed expression analysis directly from SK-N-MC neuroblastoma cells cultured in 384-well plates through in situ cDNA synthesis. In this miniaturized assay, high copy numbers of SNCA and of endogenous controls were detected as indicated by raw cycle threshold values of 25.11±0.02 (mean CT value±SEM) and 20.2±0.02 for SNCA and Ubiquitin C (UBC), respectively. Technical variation (using identical cDNA loaded in multiple wells) and biological variation (cDNA synthesized in situ in each of 384 wells of cultured SK-N-MC cells treated with DMSO) were low, with coefficients of variation of 1% and 5.2% respectively. At least ten DMSO-treated controls were included on each 384-well plate as negative external control and calibrator. An equal amount of cDNA derived from Universal Reference RNA was spotted on all plates as plate-to-plate control. Control reactions lacking template or reverse transcription were assayed for contamination with genomic DNA.
41 compounds were forwarded into the Replication Assay. For each compound eight wells were treated with drug and compared to eight wells treated with DMSO alone. The Cell-to-CT procedure was employed using two new reference genes, ribosomal protein L13 (RPL13) and glucuronidase beta (GUSB) (instead of UBC) to control for input RNA. […] 10 compounds met these criteria and were forwarded from the Replication into the Confirmation Assay.
The ten forwarded compounds were used in the Confirmation Assay. For each compound ten wells were treated with drug and compared to ten wells treated with DMSO alone. RNA was extracted using TRIzol® following the manufacturers protocol (Life Technologies). Freshly ordered compounds were used. […] Six compounds met these criteria and were forwarded from the Confirmation Assay to the ELISA Assay stage (see below).
Total RNA from flash-frozen mice brain tissue, rodent primary cells, human neuroblastoma cells and iPSC-derived neuronal cells was isolated using TRIzol® (Life Technologies) following the manufacturer's protocol. […]

Snca mRNA [2] = assay: Snca mRNA in rat primary cortical neurons; format: cell-based; conditions: metaproterenol 5 μM, clenbuterol 20 μM, salbutamol 10 μM, 48 hours
Procedure: (§1) Primary cortical cultures were generated from E18 Sprague-Dawley rat embryos. The cortical region was dissected out in Hank's Balanced Salt Solution buffered with Hepes and dissociated with 0.125% trypsin (Invitrogen) for 17 min at 37 ° C., followed by trituration. Dissociated cells were plated at a density of 5×10^5 cells/well or 2.5×10^5 cells/well in 12-well or 24-well plates, respectively precoated with poly-D lysine (100 μg/mL). The cells were cultured in Neurobasal medium with B-27 supplement (Invitrogen) and glutamax and gentamycin. Half of the medium was changed every 4 days. Cortical neurons were treated with β2AR agonists 10 days post plating. They were then harvested 48 hours post-treatment for mRNA extraction and 72 hours post-treatment for protein extraction.
Total RNA from flash-frozen mice brain tissue, rodent primary cells, human neuroblastoma cells and iPSC-derived neuronal cells was isolated using TRIzol® (Life Technologies) following the manufacturer's protocol. RNA concentration was measured using NanoDrop spectrophotometer (Thermo Fisher Scientific, Wilmington, De.). 2 μg of total RNA was reverse transcribed into cDNA using the High Capacity cDNA Reverse Transcription Kit from Applied Biosystems. Quantitative PCR was performed using TaqMan Universal PCR Master Mix (Applied Biosystems) on an ABI 7900HT instrument (Applied Biosystems) as described previously (31). For mouse brain tissue and rat primary cortical neuron samples, rodent-specific TaqMan Assay on-demand primers and probes were used to assay the relative abundance of target genes, and rodent Rp113 was used as a reference gene to normalize for RNA loading. Similar results were obtained when Actb or Ubc were used as controls for input RNA. For human neuroblastoma and iPSC-derived neuron samples, human TaqMan Assay on-demand probes were used to assay the relative abundance of target genes, and the geometric mean of the three human reference genes RPL13, GUSB and UBC was used to normalize for RNA loading. Expression values were analyzed using the comparative threshold cycle method (31).

α-synuclein protein = α-synuclein protein in rat primary cortical neurons (ELISA); format: cell-based; conditions: metaproterenol 5 μM, clenbuterol 20 μM, salbutamol 10 μM, 72 hours
Procedure: as §1
Protein lysis buffer containing 320 mM sucrose, 5 mM NaF, 1 mM Na3VO4, 10 mM Tris (pH 7.4), 1 mM EGTA, and 1 mM EDTA was used for mice brain tissue lysis. 100 μL of cold extraction buffer was added to each sample and homogenized in a dounce homogenizer. […] Total protein concentrations were determined by BCA assay (Thermo Scientific) according to the manufacturer's instructions. Total α-synuclein was quantified using an α-synuclein-specific sandwich ELISA.
An α-synuclein-specific Meso Scale Discovery (MSD) ELISA assay (described in Ref. (11)) was utilized for endogenous α-synuclein protein measurement. […] After samples were emptied and plate washed 3 times with TBS-T, sulfo-tagged SOY1 mAb (detection Ab) (generated using Sulfo-Tag-NHS-Ester (MSD) diluted in blocking buffer (6.7 ng/μl), was added to the plate (30 μl volumes/well) and shaken for 1 hour at room temperature. Following 3 washes, MSD Read (2×, diluted in ultrapure water) buffer was added and the plates were immediately measured using a MSD Sector 2400 imager. For confirmatory studies, an second α-synuclein-specific ELISA implementation was used employing a different, extensively published anti-α-synuclein detection antibody (Syn-1 mAb) and a different anti-α-synuclein capture antibody (1H9, courtesy Dr. Selkoe).

[3] = tested on: 6-hydroxydopamine rat model of PD; conditions: 6-hydroxydopamine rat model of PD (reference 9); cited from earlier work
[4] = tested on: H3K27 acetylation of SNCA promoter and enhancers; assay: chromatin immunoprecipitation for H3K27ac at SNCA promoter and enhancers in SK-N-MC cells; format: cell-based, human; conditions: clenbuterol 10 μM, valproic acid 100 μM, propranolol 100 μM, vs vehicle
Procedure: Chromatin immunoprecipitation (ChIP) assays were performed using the Simple ChIP Enzymatic Chromatin IP kit protocol as recommended by the manufacturer (Cell Signaling Technology) with slight modifications. Briefly, ChIPs were performed on asynchronously growing SK-N-MC cells treated with clenbuterol (10 μM), valproic acid (100 μM) or propranolol (100 μM). Cross-linking was carried out with 1% formaldehyde for 10 min at room temperature. Cross-linking was subsequently quenched by adding glycine to a final concentration of 1× for 5 min. Cells were collected and washed twice with PBS, then resuspended in 2 mL of lysis buffer (as described in the protocol). After 10 min on ice, cells were treated with micrococcal nuclease and then sonicated to obtain DNA fragments of ˜500 bp as determined by agarose gel electrophoresis with ethidium bromide staining. Protein-DNA complexes were isolated by centrifugation at 10,000 rpm for 10 min. Supernatants with protein-DNA complexes were incubated overnight with rabbit polyclonal antibody directed against acetylated H3K27 (Abcam). Normal rabbit IgG was used as a negative control and Histone H3 rabbit mAb (ChIP formulated) as positive control. 2% of sample was saved as input. Antibody-protein-DNA complexes were further incubated for 2 hours with 30 μl of ChIP-grade Protein G magnetic beads to isolate antibody bound fractions of chromatin. Immuno-complexes were washed with the buffers provided and as described in the kit. Protein-DNA complexes were eluted and cross-links of pull down fractions and inputs (2% of total IP fraction) were reversed by 2 hours incubation in Proteinase K and 5 M NaCl at 65° C. […] 2 μl of immunoprecipitated DNA was analyzed by qPCR using a Power SYBR Green PCR Master mix (Applied Biosystems by Life technologies) on an ABI 7900HT instrument (Applied Biosystems) with the following temperature profile: 3 min of enzyme activation at 95° C. followed by 40 cycles of 95° C. for 15 s and 60° C. for 60 s. Sample from three independent immunoprecipitation assays were analyzed.

H3K27Ac = assay: immunoblot with antibody against H3K27Ac in SK-N-MC cells; format: cell-based, human; conditions: vs vehicle-treated cells
Procedure: For western blot analysis, protein samples (20 μg) were run on a 4-20% gradient SDS-polyacrylamide gel (Biorad) and transferred onto a polyvinylidene fluoride (PVDF) membrane filter (0.2 μm; Biorad) using an electroblot apparatus (Bio-Rad, Hercules, Calif.) at 100V for 1 h in transfer buffer (25 mM Tris-HCl, 192 mM glycine, 0.1% SDS, 20% (v/v) methanol). The membrane was incubated in blocking solution (50 mM Tris-HCl, 200 mM NaCl, 1 mM MgCl2, pH 7.4) containing 5% non-fat dry milk powder for 1 hour at room temperature. The membrane was processed through sequential incubations with primary antibody overnight at 4° C. followed by incubation with horseradish peroxidase-conjugated species specific secondary antibody at 1:250 dilutions (Thermo Scientific Pierce). Immunoreactive proteins on the membrane were visualized using the SuperSignal™ West Pico Chemiluminescent kit (Thermo Scientific Pierce). Scanned western blots were analyzed using ImageJ software, version 1.47. Pictures were inverted and usually the background signal from an empty lane was subtracted to obtain specific signals for each lane.

Row | Structure (SMILES) | relative SNCA mRNA abundance, confirmation stage (SNCA mRNA [1]; SK-N-MC cells) | reduction of SNCA expression in the screening stage (SNCA mRNA [1]; SK-N-MC cells, 48 hours, vs DMSO, final concentration 1 μM) | SNCA mRNA expression, dose dependence (SNCA mRNA [1]; SK-N-MC cells, indicated doses, 48 hours) | endogenous Snca mRNA (Snca mRNA [2]) | α-synuclein protein levels (α-synuclein protein) | dopaminergic neurodegeneration [3] | relative SNCA mRNA abundance (with H3K27Ac blot) (SNCA mRNA [1]; SK-N-MC cells, vs vehicle-treated cells) | effect of co-treatment on the β2AR agonist effect on SNCA expression (SNCA mRNA [1]; co-treatment of clenbuterol with valproic acid) | H3K27 acetylation across SNCA promoter and two intronic enhancers (ChIP) [4] | H3K27Ac levels (Western blotting) (H3K27Ac)
1 | CC(C)NCC(O)c1cc(O)cc(O)c1 (centres unmarked) [metaproterenol] | reduced SNCA mRNA abundance | more than 35% | lowered SNCA mRNA expression in a dose-dependent manner | significantly, but modestly, reduced | significantly, but modestly, reduced |  |  |  |  | 
2 | Nc1nc2ccc(OC(F)(F)F)cc2s1 [riluzole hydrochloride] | fourth hit |  |  |  |  | attenuates dopaminergic neurodegeneration |  |  |  | 
3 | CCCC(CCC)C(=O)O [valproic acid] |  |  |  |  |  |  | increase | abrogated the β2AR agonist effect on SNCA expression | increased H3K27 acetylation | increase
